Data from patent US7700375B2, “Fluorescent labeling of specific protein targets in vitro and in vivo” (Valorisation-Recherche, LP, priority 2004, dated 2010).
Blank lines part the entries; values can stand above or below the compound they belong to.

Experiments:
[1] = Fluorescence spectral properties of fluorogens and their ethanethiol adducts; type: physicochemical; settings: for φ (quantum yield): rapid approximation method of reference 34
Procedure: For the application of this fluorogenic reaction to the detection of thiols and dithiols, two important criteria are the fluorescence intensity of the thiol addition product and the ratio of its fluorescence compared to its parent fluorogen. We studied the effect of electron withdrawing and donating substituants on these criteria by preparing the derivatives of fluorogen 4 shown in Scheme 1. Fluorogen 5, bearing an electron withdrawing ester group, was prepared according to a protocol similar to that used for fluorogen 4, but using an ester-substituted maleic anhydride derived by oxidation of dimethyl L-tartrate according to a published procedure.^31 Fluorogen 6 bears an electron donating methyl group and was obtained in similar yield by adaptation of the standard literature protocol,^25 using citraconic anhydride. The reaction of 5 and 6 with ethanethiol in DMSO led to the formation of thiol adducts 8 and 9, whose fluorescence was characterized as shown in Table 1. Even from this small series, certain tendencies are apparent. Increasing the electron donating capacity of the substituent appears to have a significant effect on the absorbance maximum corresponding to the wavelength of excitation, increasing by 37 nm from 8 to 9. Although the emission wavelength increases very slightly over the same series, the net effect on the Stokes shift is a significant decrease with increasing electron donating capacity of the substituent.
(§1) Comparison of the fluorescent properties^34 of the four different parent fluorogens (and their corresponding thiol adducts) studied herein (see Table 2) substantiates our retention of compounds 13 and 20 as candidates for further tests with proteins.
The following material were obtained from Aldrich and were used without further purification: 2-hydroxy-5-nitrobenzaldehyde, N-acetylglycine, maleic anhydride, p-nitrophenylacetic acid, L-aspartic acid dimethyl ester hydrochloride, citraconic anhydride, dimethyl L-tartrate, dimethyl malonate. All reactions were carried out under an atmosphere of dry nitrogen employing conventional bench-top techniques except for reactions with thiols. ^13C-NMR and ^1H-NMR spectra were recorded on AMXR400 or AMX300 spectrometers and were referenced to the residual proton or ^13C signal of the solvent. Mass spectra were determined by FAB+ ionization on an AutoSpecQ spectrometer at the Regional Mass Spectrometry Centre at the Université de Montréal. Infrared spectra were recorded on a Perkin-Elmer (FTIR) spectrometer. Melting points (uncorrected) were determined on a Unimelt Tomas-Hoover or on a Gallenkamp meting point apparatus. Fluorescence spectra were recorded using a Varian Cary Eclipse fluorimeter and gel electrophoresis was carried out on a SpectraPhoresis 100 apparatus.

[2] = Thiol addition reaction of fluorogens with ethanethiol (fluorescence increase)
Description: The fluorescence spectra obtained upon excitation at 350 nm before and after the reaction of ethanethiol with compound 4 are shown in FIG. 1.
Based on this observation, we reasoned that compounds 4 and 13 should also react efficiently with one equivalent of a dithiol bearing two sulfhydryl groups separated by an appropriate distance. […] That is, after fluorogen 4 undergoes an initial addition reaction with BMMB, the second addition reaction with the pendant sulfhydryl group of BMMB is intramolecular and presumably much faster (Scheme 5).
[formula] […] In the case of dithiol addition, this second addition reaction with a sulfhydryl group would be intramolecular, and presumably even faster.

[3] = Product study of reaction with 3-mercaptopropionic acid by capillary electrophoresis; settings: up to 2 equivalents of 3-mercaptopropionic acid; CE
Description: Product studies carried out for the reaction of 4 with simple thiols support the hypothesis that the second addition reaction is faster than the first. Initial experiments involved the addition of ethanethiol to 4 and attempts to separate and characterize the dithiolated and monothiolated adducts. However, no significant peak corresponding to the putative monothiolated adduct could be isolated by flash chromatography, so an experiment was designed to facilitate the separation of the monothiolated and dithiolated adducts by capillary electrophoresis (CE, see Experimental Section). By using 3-mercaptopropionic acid as a simple thiol, we ensured that at basic pH, any monothiolated adduct would singly negatively charged, due to ionization of the carboxylate group, whereas the dithiolated product would be doubly negatively charged.
After reaction of 1 mM 1 with 0.25-3 mM 3-mercaptopropionic acid in DMSO-H2O 1.9 overnight, the fluorescence of the reaction mixture was measured. To this mixture was then added 3 equivalents of ethanethiol, converting all unreacted and monothiolated adducts to dithiolated adducts. […] Their relative concentrations were calculated by the areas under their peaks, recorded UV detection at 370 nm. […]

[4] = Temperature dependence of first-order rate constants of ethanethiol addition; settings: 0.1 mM fluorogen, 2.0 mM ethanethiol in DMF, 10-40° C.
Procedure: First-order rate constants for the reaction of 0.1 mM 13 with 2.0 mM ethanethiol in DMF were also measured as a function of temperature from 10-40° C. Over this temperature range, the observed rate constants increased slightly with temperature, but varied by less than a factor of 2, and evaporation of ethanethiol was problematic at 40° C. For these reasons, precise quantitative analysis of the effect of temperature (for example, in the form of an Eyring plot) was not possible.

mCys-Fos = target: T1, mCys-Fos (Homo sapiens, UniProt P01100, C204S); assay: Protein labeling in vitro, SDS-PAGE with UV illumination; type: biochemical; settings: 0.242 mM protein, 0.5 mM of 20 or 0.05 mM of 13, 25° C. overnight
T1 construct: the C99S mutant of a fragment of Fos; His-tag (N); made in house; host or cells: XL1-blue E. coli
Procedure: (§2) As mentioned in the introduction, an α-helical protein was designed to bear two cysteine residues, separated by a distance complementary to that between the maleimide groups of the designated fluorogen. The protein chosen as a starting point for this design was the C99S mutant of a fragment of Fos,^21 a known α-helical protein^22 whose recombinant expression has been published.^23 Site-directed mutagenesis was then performed^20,35 to introduce a cysteine residue (L56C), separated by two turns of the α-helical motif from the native Cys49, positioning the protein's only two thiol groups approximately 10 Å apart.^36 Although at higher concentrations, Fos is known to form a homodimer,^22 the distance between the intermolecular cysteine residues in this putative homodimer would render their reaction with a single fluorogen molecule impossible. […]
(§3) Purified mCys-Fos and diCys-Fos were then tested in vitro for their ability to react with fluorogens 13 and 20. After incubation of 0.242 mM protein with 0.5 mM of 20 or 0.05 mM of 13 at 25° C. overnight, glycerol was added and the reaction mixtures were analyzed by SDS-PAGE using UV illumination and then Coomassie blue staining. […]

diCys-Fos = diCys-Fos (Homo sapiens, UniProt P01100, C204S/L161C); assay: as above; type: biochemical; design: the C99S mutant of a fragment of Fos; settings: 0.242 mM protein, 0.5 mM of 20 or 0.05 mM of 13, 25° C. overnight
Procedure: as §2, §3

Solubility = type: physicochemical
Procedure: as §1
Finally, we wished to determine if fluorogens such as 13 and 20 were cytotoxic. […] Furthermore, even at 300 μM 20, the limit of its solubility in cell culture, 70% of COS cells were still viable (FIG. 8). […] The convenience of the application of this fluorescent labeling method is obvious from the low cytoxocity of 20, even at concentrations 30 times greater than those necessary for efficient labeling.

[5] = in DMSO, ratio of areas under fluorescence emission bands of fluorogen and its thiol adduct

Chain of diCys-Fos (P01100 118-211 L161C/C204S limits assumed): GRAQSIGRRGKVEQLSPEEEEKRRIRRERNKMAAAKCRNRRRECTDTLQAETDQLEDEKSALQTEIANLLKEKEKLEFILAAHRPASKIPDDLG
T1 sequence (P01100 118-211 C204S limits assumed): as the sequence (P01100 118-211 L161C/C204S limits assumed) above, with C44L counted along it

Structure (SMILES): O=C1C=CC(=O)N1c1ccc2oc(=O)c(N3C(=O)C=CC3=O)cc2c1 [Compound 4, 3,6-Dimaleimidylchromen-2-one]
melting point: > 296 °C (dec.)

Structure (SMILES): CC1=CC(=O)N(c2ccc3oc(=O)c(N4C(=O)C=C(C)C4=O)cc3c2)C1=O [Compound 6, 3,6-Di-(3′-methylmaleimidyl)chromen-2-one]
Stokes shift ([1]; in DMSO): 82 nm | λem (emission band) ([1]; in DMSO): 370-600 nm | λem, wavelength corresponding to center of Full Width at Half Maximum of emission band ([1]; in DMSO): 455 nm | λexc ([1]; in DMSO): 373 nm | IF Ratio [1, 5]: 3.6

Structure (SMILES): O=C1C=CC(=O)N1c1ccc(-c2cc3cc(N4C(=O)C=CC4=O)ccc3oc2=O)cc1 [Compound 13, 6-Maleimidyl-3-p-maleimidylphenylchromen-2-one]
Stokes shift ([1]; 10:90 DMSO: water): 76 nm | λem (emission band) ([1]; 10:90 DMSO: water): 400-550 nm | λem, wavelength corresponding to center of Full Width at Half Maximum of emission band ([1]; 10:90 DMSO: water): 460 nm | λexc ([1]; 10:90 DMSO: water): 384 nm | φ (quantum yield) ([1]; 10:90 DMSO: water): 0.006 | IF Ratio ([1]; 10:90 DMSO: water, ratio of areas under emission bands of fluorogen and thiol adduct): 5.2 | change in fluorescence on addition of ethanethiol ([2]; 3 mM ethanethiol, 1 mM fluorogen, 9:1 H2O:DMSO, over 3 hours): marked increase in fluorescence | equivalents of thiol at which fluorescence plateau was reached ([2]; ethanethiol): ~2.2 equivalents | formation of monothiolated adduct [3]: no monothiolated product was detectable | variation of observed first-order rate constants with temperature (factor) [4]: < 2 | fluorescent labeling of mCys-Fos (mCys-Fos): is not | fluorescent labeling of diCys-Fos (diCys-Fos): efficiently fluorescently labeled

Structure (SMILES): O=C1C=CC(=O)N1c1cccc2c(N3C(=O)C=CC3=O)cccc12 [Compound 15, 1,5-Dimaleimidylnaphthalene]
Stokes shift ([1]; neat DMSO): 63 nm | λem (emission band) ([1]; neat DMSO): 340-500 nm | λem, wavelength corresponding to center of Full Width at Half Maximum of emission band ([1]; neat DMSO): 391 nm | λexc ([1]; neat DMSO): 328 nm | φ (quantum yield) ([1]; neat DMSO): 1.70 × 10^−3 | IF Ratio ([1]; neat DMSO, ratio of areas under emission bands of fluorogen and thiol adduct): 31 | solubility in water / aqueous DMSO (Solubility): insoluble in water, even upon the addition of up to 10% DMSO

Structure (SMILES): CCSC1CC(=O)N(c2cc3c4c(cc(N5C(=O)CC(SCC)C5=O)cc4c2)C(=O)N([C@@H](CC(=O)OC)C(=O)OC)C3=O)C1=O (stereo partly drawn) [Compound 21, N-(3,6-Di(3′-ethylthiosuccinimidyl)-1,8-naphthalyl)-L-aspartic acid dimethyl ester]
Stokes shift ([1]; 10:90 DMSO: water): 67 nm | λexc ([1]; 10:90 DMSO: water): 511 nm | fluorescence of ethanethiol adduct relative to parent fluorogen (factor) ([1]; adduct vs parent fluorogen (16 in DMSO)): 8.5 | detectability of adduct fluorescence ([1]; ethanethiol adduct): easily detected at micromolar concentrations

The next lines start with the values.

Stokes shift ([1]; in DMSO): 115 nm | λem (emission band) ([1]; in DMSO): 360-600 nm | λem, wavelength corresponding to center of Full Width at Half Maximum of emission band ([1]; in DMSO): 447 nm | λexc ([1]; in DMSO): 332 nm | IF Ratio [1, 5]: 2.7
Structure (SMILES): COC(=O)C1=CC(=O)N(c2ccc3oc(=O)c(N4C(=O)C=C(C(=O)OC)C4=O)cc3c2)C1=O [Compound 5, 3,6-Di-(3′-methoxycarbonylmaleimidyl)chromen-2-one]

Stokes shift ([1]; in DMSO): 121 nm | λexc ([1]; in DMSO): 336 nm
Structure (SMILES): CCSC1C(=O)N(c2ccc3oc(=O)c(N4C(=O)C(SCC)C(C(=O)OC)C4=O)cc3c2)C(=O)C1C(=O)OC (centres unmarked) [Compound 8, 3,6-Di-(3′-ethylthio-4′-methoxycarbonylsuccinimidyl)chromen-2-one]

Stokes shift ([1]; in DMSO): 82 nm | λexc ([1]; in DMSO): 373 nm
Structure (SMILES): CCSC1C(=O)N(c2ccc3oc(=O)c(N4C(=O)C(C)C(SCC)C4=O)cc3c2)C(=O)C1C (centres unmarked) [Compound 9, 3,6-Di-(3′-ethylthio-4′-methylsuccinimidyl)chromen-2-one]

Stokes shift ([1]; 10:90 DMSO: water): 76 nm | λexc ([1]; 10:90 DMSO: water): 384 nm | φ (quantum yield) ([1]; 10:90 DMSO: water): 0.223
Structure (SMILES): CCSC1CC(=O)N(c2ccc(-c3cc4cc(N5C(=O)CC(SCC)C5=O)ccc4oc3=O)cc2)C1=O (centres unmarked) [Compound 14, 6-(3′-Ethylthiosuccinimidyl)-3-p-(3′-ethylthiosuccinimidyl)phenylchromen-2-one]
